Key:
cPLA2 = target: T1, cPLA2 (Homo sapiens, UniProt P47712); test: cPLA2 Inhibitory Activity; format: biochemical; settings: 1-palmitoyl-2-[14C]-arachidonoyl-sn-glycero-3-phosphocholine 2.5 μM, sn-1,2-dioleoylglycerol 1.25 μM; pH 7.5, 15 min at 37° C.
T1 sequence (P47712 1-749): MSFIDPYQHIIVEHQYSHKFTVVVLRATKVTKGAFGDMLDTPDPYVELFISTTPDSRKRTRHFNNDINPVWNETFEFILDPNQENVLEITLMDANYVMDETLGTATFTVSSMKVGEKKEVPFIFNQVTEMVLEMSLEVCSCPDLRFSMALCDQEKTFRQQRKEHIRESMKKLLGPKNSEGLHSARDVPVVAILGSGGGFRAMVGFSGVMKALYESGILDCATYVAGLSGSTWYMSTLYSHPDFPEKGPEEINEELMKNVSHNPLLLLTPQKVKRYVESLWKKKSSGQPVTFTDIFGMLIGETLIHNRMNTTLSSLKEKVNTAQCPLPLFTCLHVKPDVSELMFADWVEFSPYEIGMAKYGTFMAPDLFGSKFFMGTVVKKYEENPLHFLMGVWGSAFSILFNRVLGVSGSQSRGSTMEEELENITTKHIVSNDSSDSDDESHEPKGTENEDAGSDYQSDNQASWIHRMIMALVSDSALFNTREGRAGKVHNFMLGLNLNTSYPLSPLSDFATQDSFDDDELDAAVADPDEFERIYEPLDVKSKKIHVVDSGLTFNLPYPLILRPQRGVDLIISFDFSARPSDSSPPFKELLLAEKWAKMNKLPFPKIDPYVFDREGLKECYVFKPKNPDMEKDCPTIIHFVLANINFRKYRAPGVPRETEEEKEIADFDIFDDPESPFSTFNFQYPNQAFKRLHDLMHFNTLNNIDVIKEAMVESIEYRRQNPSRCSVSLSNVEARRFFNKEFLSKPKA
Procedure: Test Example 1 cPLA2 Inhibitory Activity The compounds of the present invention were tested for the cPLA2 inhibitory activity according to the method disclosed in […]. Roberts, […], and J. E. Putnam, J. Biol. Chem., 1991, 266, 5268-5272 as outlined below. […] The reaction mixture includes 50 mM HEPES buffer (pH 7.5), 1 mM calcium chloride, 150 mM sodium chloride, 0.1 mg/ml bovine serum albumin, and 1.7 mM dithiothreitol. To the reaction mixture was added the compound of the present invention and the substrate solution. The reaction was allowed to start by adding an enzyme and continued for 15 min at 37° C. The fatty acids released by the reaction were extracted by the method described in V. P. Dole, and H. Meinertz, J. Biol. Chem., 1960, 235, 2595-2599 and its radiation activity was measured on a liquid scintillation counter. Control was obtained by conducting the experiment in the same manner except that a compound of the present invention was not added.

[1] = test system: production of prostaglandin E2 by human fibroblasts; test: Inhibition of Production of Prostaglandin E2 in Human Fibroblasts (IL-1 stimulation); format: cell-based; settings: Fibroblast; human fibroblasts under stimulation with IL-1
Procedure: Test Example 2 Inhibition of Production of Prostaglandin E2 in Human Fibroblasts.
In order to examine the availability of the composition for inhibiting cytosolic phospholipase A2 (cPLA2) on the cells, the compounds of the present invention were tested for the effect on the production of prostaglandin E2 by human fibroblasts under the stimulation with IL-1 according to the method of J. M. Dayer et al (CACHECTIN/TUMOR NECROSIS FACTOR STIMULATES COLLAGENASE AND PROSTAGLANDIN E2 PRODUCTION BY HUMAN SYNOVIAL CELLS AND DERMAL FIBROBLASTS; J. M. Dayer, B, Beutler and A, Cerami, J. EXP. Med., 1985, 162, 2163-2168.).

Structure (SMILES) | IC50 (cPLA2) [nM] | IC50 [1] [nM]
O=C1NC(=O)/C(=C/c2ccc(C(=O)NC[C@@H]3C[C@@H](Oc4cccc(-c5ccc6ccccc6c5)c4)CN3C(=O)c3ccccc3C(=O)c3ccc(F)cc3)cc2)S1 [Compound A-84] | 33 | 250
CC(C)N(Cc1ccccc1-c1ccccc1)[C@@H]1C[C@@H](CNC(=O)c2ccc(/C=C3\SC(=O)NC3=O)cc2)N(C(=O)c2ccccc2C(=O)c2ccc(F)cc2)C1 [Compound M-9] | 39 | 3600
O=C1NC(=O)/C(=C/c2ccc(C(=O)NC[C@@H]3C[C@@H](OCc4ccc5ccccc5c4-c4ccccc4)CN3C(=O)c3ccccc3C(=O)c3ccc(F)cc3)cc2)S1 [Compound A-39] | 25 | 330
COc1cccc(-c2ccccc2OC(C)C)c1O[C@@H]1C[C@@H](CNC(=O)c2ccc(/C=C3\SC(=O)NC3=O)cc2)N(C(=O)c2ccccc2C(=O)c2ccc(F)cc2)C1 [Compound A-122] | 35 | 1400
O=C1NC(=O)/C(=C/c2ccc(C(=O)NC[C@@H]3C[C@@H](Oc4ccccc4Oc4ccccc4)CN3C(=O)c3ccccc3C(=O)c3ccc(F)cc3)cc2)S1 [Compound A-119] | 30 | 2800
O=C(C[C@@H]1C[C@@H](OCc2ccccc2-c2ccccc2)CN1C(=O)c1ccccc1C(=O)c1ccc(F)cc1)Nc1ccc(/C=C2\SC(=S)NC2=O)cc1 [Compound F-3] | 420 | 3000
O=C1NC(=O)/C(=C/c2ccc(C(=O)NC[C@@H]3C[C@@H](Oc4cc(-c5ccccc5)c5ccccc5c4)CN3C(=O)c3ccccc3C(=O)c3ccc(F)cc3)cc2)S1 [Compound A-81] | 53 | 350
O=C1NC(=O)/C(=C/c2ccc(C(=O)NC[C@@H]3C[C@@H](OCc4ccccc4-c4ccccc4)CN3C(=O)c3ccccc3C(=O)c3ccc(F)cc3)s2)S1 [Compound A-58] | 49 | 1600
O=C1NC(=O)/C(=C/c2ccc(C(=O)NC[C@@H]3C[C@@H](Oc4ccccc4-c4cccc(-c5ccccc5)c4)CN3C(=O)c3ccccc3C(=O)c3ccc(F)cc3)cc2)S1 [Compound A-112] | 65 | 1700
O=C1NC(=O)/C(=C/c2ccc(NC(=O)[C@@H]3C[C@@H](OCc4ccccc4-c4ccccc4)CN3C(=O)c3ccccc3C(=O)c3ccc(Cl)cc3)cc2)S1 [Compound B-3] | 420 | 3900
O=C1NC(=O)/C(=C/c2ccc(C(=O)NC[C@H]3C[C@H](SCc4ccccc4-c4ccccc4)CN3C(=O)c3ccccc3C(=O)c3ccc(F)cc3)cc2)S1 [Compound Q-4] | 1850 | 950
O=C1NC(=O)/C(=C/c2ccc(S(=O)(=O)NC[C@@H]3C[C@@H](OCc4ccccc4-c4ccccc4)CN3C(=O)c3ccccc3C(=O)c3ccc(F)cc3)cc2)S1 [Compound A-62] | 260 | 1100
CC(C)(C)c1ccccc1O[C@@H]1C[C@@H](CNC(=O)c2ccc(/C=C3\SC(=O)NC3=O)cc2)N(C(=O)c2ccccc2C(=O)c2ccc(F)cc2)C1 [Compound A-75] | 190 | 2200
O=C1NC(=S)S/C1=C\c1ccc(C=C[C@@H]2C[C@@H](OCc3ccccc3-c3ccccc3)CN2C(=O)c2ccccc2C(=O)c2ccc(F)cc2)cc1 [Compound E-3] | 730 | 6000
CN(Cc1ccccc1)[C@@H]1C[C@@H](C(=O)Nc2ccc(/C=C3\SC(=S)NC3=O)cc2)N(C(=O)c2ccccc2C(=O)c2ccc(F)cc2)C1 [Compound N-1] | 140 | 760
CN(Cc1ccccc1-c1ccccc1)[C@@H]1C[C@@H](CNC(=O)c2ccc(/C=C3\SC(=S)NC3=O)cc2)N(C(=O)c2ccccc2C(=O)c2ccc(F)cc2)C1 [Compound M-7] | 270 | 1500
CN(Cc1ccccc1-c1ccccc1)[C@@H]1C[C@@H](CNC(=O)c2ccc(/C=C3\SC(=O)NC3=O)cc2)N(C(=O)c2ccccc2C(=O)c2ccc(F)cc2)C1 [Compound M-6] | 140 | 1500
O=C1NC(=O)/C(=C/c2ccc(C(=O)NC[C@@H]3C[C@@H](OCc4ccccc4-c4ccccc4)CN3C(=O)c3ccccc3C(=O)c3ccc(Cl)cc3)cc2)S1 [Compound A-22] | 300 | 180

Second part, led by results:

IC50 (cPLA2) [nM] | Structure (SMILES) | IC50 [1] [nM]
500 | O=C1NC(=S)S/C1=C\c1ccc(NC(=O)[C@@H]2C[C@@H](SCc3ccccc3-c3ccccc3)CN2C(=O)c2ccccc2C(=O)c2ccc(F)cc2)c(O)c1 [Compound J-7] | 6200
130 | O=C1NC(=S)S/C1=C\c1ccc(NC(=O)[C@@H]2C[C@@H](OCc3ccccc3-c3ccccc3)CN2C(=O)c2ccccc2C(=O)c2ccc(Cl)cc2)cc1 [Compound B-4] | 5600
130 | CN(Cc1ccccc1-c1ccccc1)[C@@H]1C[C@@H](C(=O)Nc2ccc(/C=C3\SC(=O)NC3=O)cc2)N(C(=O)c2ccccc2C(=O)c2ccc(F)cc2)C1 [Compound N-2] | 1800
10 | CC(C)c1ccccc1-c1ccccc1O[C@@H]1C[C@@H](CNC(=O)c2ccc(/C=C3\SC(=O)NC3=O)cc2)N(C(=O)c2ccccc2C(=O)c2ccc(F)cc2)C1 [Compound A-115] | 4600
1100 | O=C1NC(=S)S/C1=C\c1ccc(CC[C@@H]2C[C@@H](OCc3ccccc3-c3ccccc3)CN2C(=O)c2ccccc2C(=O)c2ccc(F)cc2)cc1 [Compound E-1] | 2200
56 | COc1ccccc1-c1ccccc1CO[C@@H]1C[C@@H](CNC(=O)c2ccc(/C=C3\SC(=O)NC3=O)cc2)N(C(=O)c2ccccc2C(=O)c2ccc(F)cc2)C1 [Compound A-41] | 1200
27 | O=C1NC(=O)/C(=C/c2ccc(C(=O)NC[C@@H]3C[C@@H](N(CC4CC4)C(c4ccccc4)c4ccccc4)CN3C(=O)c3ccccc3C(=O)c3ccc(F)cc3)cc2)S1 [Compound M-14] | 1400
48 | O=C1NC(=O)/C(=C/c2ccc(C(=O)NC[C@@H]3C[C@@H](OCc4ccccc4-c4ccccc4)CN3C(=O)c3ccccc3C(=O)c3ccc(F)cc3F)cc2)S1 [Compound A-25] | 800
100 | O=C1NC(=O)/C(=C/c2ccc(C(=O)NC[C@@H]3C[C@@H](Oc4cccc5c4CCCC5)CN3C(=O)c3ccccc3C(=O)c3ccc(F)cc3)cc2)S1 [Compound A-77] | 350
4.1 | CC(C)CN(C(c1ccccc1)c1ccccc1)[C@@H]1C[C@@H](CNC(=O)c2ccc(/C=C3\SC(=O)NC3=O)cc2)N(C(=O)c2ccccc2C(=O)c2ccc(F)cc2F)C1 [Compound M-17] | 1000
84 | O=C1NC(=O)/C(=C/c2ccc(NC(=O)[C@@H]3C[C@@H](SCc4ccccc4-c4ccccc4)CN3C(=O)c3ccccc3C(=O)c3ccc(F)cc3)cc2)S1 [Compound J-1] | 120
98 | O=C1NC(=O)/C(=C/c2ccc(/C=C/C[C@@H]3C[C@@H](OCc4ccccc4-c4ccccc4)CN3C(=O)c3ccccc3C(=O)c3ccc(F)cc3)cc2)S1 [Compound E-14] | 5600
52 | O=C1NC(=O)/C(=C/c2ccc(C(=O)NC[C@@H]3C[C@@H](Oc4ccccc4-c4cccc5c4OCO5)CN3C(=O)c3ccccc3C(=O)c3ccc(F)cc3)cc2)S1 [Compound A-102] | 330
2.1 | CC(C)CN(C(c1ccccc1)c1ccccc1)[C@@H]1C[C@@H](CNC(=O)/C=C/c2ccc(/C=C3\SC(=O)NC3=O)cc2)N(C(=O)c2ccccc2C(=O)c2ccc(F)cc2F)C1 [Compound M-21] | 310
1600 | O=C1NC(=O)/C(=C/c2ccc(C(=O)NC[C@@H]3C[C@@H](OCc4ccccc4-c4ccccc4)CN3C(=O)c3ccccc3C(=O)c3ccoc3)cc2)S1 [Compound A-17] | 700
